Measurements reported in patent publication US8759400B2, “Histone deacetylase inhibitors for enhancing activity of antifungal agents” (MethylGene Inc., priority 2005, dated 2014).
In brackets after ≈: the same amount, converted by molar mass. Like-named read-outs stand apart in the source and are kept apart here.

Legend:
HDAC [1] = experiment: HDAC inhibitory activity in fungal protoplasts (Fluor-de-Lys); format: cell-based, Candida albicans; conditions: C. albicans protoplasts; for HDAC inhibition, per cent in parentheses beside IC50 >20: concentration not given
Protocol: (§1) Protoplasts of C. albicans and C. glabrata are prepared by the […] method of Franzusoff et al.

C. albicans (ATCC 90028) = experiment: MIC80 and checkerboard synergy with antifungal agents; format: cell-based, Candida albicans; conditions: C. albicans (ATCC 90028); for MIC / MIC80: compound alone
HDAC [2] = experiment: HDAC inhibitory activity in fungal protoplasts (Fluor-de-Lys); format: cell-based, Candida glabrata; conditions: C. glabrata protoplasts; for HDAC inhibition, per cent in parentheses beside IC50 >20: concentration not given
Protocol: as §1

A. fumigatus ATCC 1022 = experiment: MIC80 and checkerboard synergy, broth microdilution (NCCLS M38-A); format: cell-based, Aspergillus fumigatus; conditions: for conc. for 4-fold synergy: 48 hours
C. glabrata (ATCC 90030) [3] = experiment: MIC80 and checkerboard synergy with antifungal agents; format: cell-based, Candida glabrata; conditions: C. glabrata (ATCC 90030); for MIC / MIC80: compound alone
HMEC [4] = experiment: Mammalian cytotoxicity, MTT reduction
ERG11 expression = ERG11 expression with fluconazole (FIG. 3); format: cell-based; conditions: compound 6 and fluconazole, C. albicans
HDAC [5] = experiment: HDAC inhibitory activity in fungal protoplasts (Boc-Lys(Ac)-AMC); format: cell-based, Aspergillus fumigatus; conditions: A. fumigatus protoplasts
HMEC [6] = conditions: human
C. glabrata (ATCC 90030) [7] = format: cell-based; conditions: agar plates containing 4×MIC of the relevant azole alone
C. dubliniensis = experiment: Clinical isolates, CLSI M27-A2 broth microdilution and checkerboard; format: cell-based; conditions: Candida dubliniensis
A. flavus = experiment: Clinical isolates, CLSI M38-A broth microdilution and checkerboard; format: cell-based; conditions: itraconazole alone, 48 hour endpoint, listed as ITR
C. glabrata = experiment: Post-antifungal effect (PAFE); format: cell-based; conditions: itraconazole alone at 0.25 MIC
Protocol: The post-antifungal effect (PAFE) is the time needed to achieve one log10 of cell growth after drug removal. One-two colonies are resuspended in 5 ml YPD. […] Cells are incubated at 30° C. overnight. In the morning, the optical density at 600 nm is read. Cells at A600 the closest but not surpassing 0.3 (early log-phase cells) are picked for further treatments as follows: […] Counts of CFU/ml are performed at time zero, before and after diluting the cells and at predetermined time points in order to determine the PAFE and the cidal potential of each drug combination (FIGS. 5-10).

[8] = system: C. glabrata parent strain (ATCC 90030) and C. glabrata mutants; experiment: microbe, parasite or virus in culture; format: cell-based; conditions: for MIC80: azole alone
[9] = Candida albicans, ATCC90028, read-out: MIC80
[10] = with ketoconazole, A. fumigatus ATCC 1022
[11] = Nakaseomyces glabratus, ATCC90030, read-out: MIC80
[12] = Aspergillus fumigatus, ATCC1022, compound alone, A. fumigatus ATCC 1022, read-out: MIC80

| Compound | HDAC inhibition IC50 (HDAC [1]) | MIC (C. albicans (ATCC 90028); [9]) | HDAC inhibition IC50 (HDAC [2]) | conc. for 4-fold synergy (A. fumigatus ATCC 1022; [10]) | MTT HMEC (HMEC [4]) | HDAC inhibition IC50 (HDAC [5]) | further results |
| --- | --- | --- | --- | --- | --- | --- | --- |
| O=C(NO)c1cccc(CCCc2ccccc2)c1 [Cpd 1] | 9.1 µg/mL | > 16 µg/mL | > 20 µg/mL |  |  |  | HDAC inhibition, per cent in parentheses beside IC50 >20 (HDAC [2]): 38% |
| O=C(Cc1ccc(CCCc2ccccc2)cc1)NO [Cpd 5] | > 20 µg/mL | > 8 µg/mL | > 20 µg/mL | 4 µg/mL | 47 µM |  | MIC (C. glabrata (ATCC 90030) [3]; [11]): > 50 µg/mL; HDAC inhibition, per cent in parentheses beside IC50 >20 (HDAC [1]): 42%; HDAC inhibition, per cent in parentheses beside IC50 >20 (HDAC [2]): 37% |
| O=C(CCc1ccc(CCCc2ccccc2)cc1)NO [Cpd 6] | >20 µg/mL | 25 µg/mL | > 20 µg/mL |  | 40 µM |  | ERG11 expression (ERG11 expression): decreases; MIC (C. glabrata (ATCC 90030) [3]; [11]): 25 µg/mL; HDAC inhibition, per cent in parentheses beside IC50 >20 (HDAC [2]): 22% |
| O=C(CCc1ccc(CCc2ccccc2)cc1)NO [Cpd 7] | > 20 µg/mL | > 8 µg/mL | > 20 µg/mL |  | 10 µM |  | MIC (C. glabrata (ATCC 90030) [3]; [11]): 16 µg/mL; HDAC inhibition, per cent in parentheses beside IC50 >20 (HDAC [1]): 15%; HDAC inhibition, per cent in parentheses beside IC50 >20 (HDAC [2]): 27% |
| COc1ccc(C(OC)C(C)(C)CCCCC(=O)NO)cc1 (stereo not shown) [Cpd 11] |  |  | 50 µg/mL |  | 50 µM |  |  |
| O=C(/C=C/c1ccc(CN(CCO)CCc2c[nH]c3ccccc23)cc1)NO [LAQ-824, reference compound] | 0.01 µg/mL | > 128 µg/mL | 0.01 µg/mL | >128 µg/mL |  | 0.01 µg/mL | MTT HMEC (HMEC [6]): 0.75 µM; MIC (A. fumigatus ATCC 1022; Aspergillus fumigatus, ATCC1022, 48 h, compound alone, A. fumigatus ATCC 1022, read-out: MIC80): > 128 µg/mL; MIC (C. glabrata (ATCC 90030) [3]; [11]): > 64 µg/mL |
| Nc1ccccc1NC(=O)c1ccc(CNC(=O)OCc2cccnc2)cc1 [MS275, reference compound] | >20 µg/mL |  | >20 µg/mL | >128 µg/mL |  | >40 µg/mL | MTT HMEC (HMEC [6]): 22 µM; MIC80 (A. fumigatus ATCC 1022; [12]): > 128 µg/mL; MIC80 (C. glabrata (ATCC 90030) [3]; [11]): > 64 µg/mL; MIC80 (C. albicans (ATCC 90028); [9]): > 128 µg/mL |
| O=C(CCCCCCC(=O)Nc1ccccc1)NO [SAHA, suberoylanilide hydroxamic acid, reference compound] |  |  |  |  | 18 µM |  | MIC80 (C. glabrata (ATCC 90030) [3]; [11]): > 64 µg/mL; MIC80 (C. albicans (ATCC 90028); [9]): > 128 µg/mL |
| CC(/C=C/C(=O)NO)=C\[C@@H](C)C(=O)c1ccc(N(C)C)cc1 [TSA, trichostatin A, reference compound] | 0.07 µg/mL |  | ~0.06 µg/mL | 4 µg/mL | 1 µM | 0.01 µg/mL | MIC80 (A. fumigatus ATCC 1022; [12]): 64 to 128 µg/mL; MIC80 (C. glabrata (ATCC 90030) [3]; [11]): 64 µg/mL; MIC80 (C. albicans (ATCC 90028); [9]): > 128 µg/mL |
| CC(/C=C/C(=O)NO)=C\C(C)Cc1ccc(N(C)C)cc1 (stereo not shown) [drawing 148] |  |  |  |  | 44 µM | 2.0 µg/mL | conc. for 4-fold synergy (A. fumigatus ATCC 1022; with fluconazole, A. fumigatus ATCC 1022): 0.25 µg/mL |
| CC(/C=C/C(=O)NO)=C\C(C)Cc1ccc(N(C)C)cc1 (stereo not shown) [drawing 150] |  |  |  |  | 44 µM | 2.0 µg/mL | conc. for 4-fold synergy (A. fumigatus ATCC 1022; with itraconazole, A. fumigatus ATCC 1022): 0.25 µg/mL |
| CC(/C=C/C(=O)NO)=C\C(C)Cc1ccc(N(C)C)cc1 (stereo not shown) [drawing 152] |  |  |  |  | 44 µM | 2.0 µg/mL | conc. for 4-fold synergy (A. fumigatus ATCC 1022; with voriconazole, A. fumigatus (ATCC 1022)): 0.25 µg/mL |
| OC(Cn1cncn1)(Cn1cncn1)c1ccc(F)cc1F [fluconazole] |  |  |  |  |  |  | frequency of resistant C. glabrata mutants (C. glabrata (ATCC 90030) [7]): 5×10^−6; MIC (C. dubliniensis; 48 h, read-out: FLU MIC): 0.12 µg/mL |
| CCC(C)n1ncn(-c2ccc(N3CCN(c4ccc(OCC5COC(Cn6cncn6)(c6ccc(Cl)cc6Cl)O5)cc4)CC3)cc2)c1=O (stereo not shown) [itraconazole, reference compound] |  |  |  |  |  |  | ITR MIC (A. flavus; A. flavus isolate 20351.092): 0.5 µg/mL; ITR MIC (A. flavus; A. flavus isolate 20414.083): 1.0 µg/mL; PAFE (C. glabrata): No PAFE; frequency of resistant C. glabrata mutants (C. glabrata (ATCC 90030) [7]): 3×10^−7; MIC80 ([8]; C. glabrata mutants resistant to that azole): > 64 µg/mL; MIC80 ([8]; C. glabrata parent strain): 1 µg/mL (≈ 1.42 µM); MIC80 itraconazole relative to wild type ([8]; fluconazole-resistant mutants (all)): 64 × wild type; itraconazole MIC80 in presence of Compound 4 ([8]; itraconazole-resistant mutants): ≤ 1 µg/mL |
| C[C@@H](c1ncncc1F)[C@](O)(Cn1cncn1)c1ccc(F)cc1F [voriconazole, reference compound] |  |  |  |  |  |  | MIC (C. dubliniensis; voriconazole alone, C. dubliniensis clinical isolates, CLSI M27-A2, 48 hour endpoint, read-out: VOR MIC): 0.007 µg/mL |
| Oxamflatin [reference compound] | >20 µg/mL |  | ~7 µg/mL | >128 µg/mL | 2 µM | 5.0 µg/mL | MIC80 (A. fumigatus ATCC 1022; compound alone, A. fumigatus ATCC 1022): >128 µg/mL; MIC80 (C. glabrata (ATCC 90030) [3]): >64 µg/mL; conc. for 4-fold synergy (C. glabrata (ATCC 90030) [3]; with ketoconazole, 48 hours): 128 µg/mL; MIC80 (C. albicans (ATCC 90028)): >64 µg/mL; conc. for 4-fold synergy (C. albicans (ATCC 90028); with ketoconazole, 48 hours): 16 µg/mL |
